# Patent US6844174B2, “Fermentation process for lipstatin and method of extracting lipstatin from a fermentation broth” (Biogal Gyogyszergyar Rt., priority 2001, dated 2005)
# Tested on: Streptomyces toxytricini
# Experiment: toxic level of linoleic acid in liquid culture of Streptomyces toxytricini
# Format: cell-based
# Excerpt: With Streptomyces toxytricini, the toxic level of linoleic acid in liquid culture is about 2,300-3,000 ppm. […] For this reason, the pH of lipstatin fermentation was controlled so that the linoleic acid being liberated from fats and oils was enough for the lipstatin biosynthesis but not raised to a toxic level.
structure (smiles),measurement,value
CCCCC/C=C\C/C=C\CCCCCCCC(=O)O [linoleic acid],toxic level of linoleic acid in liquid culture,"2,300-3,000 ppm"
